Measurements taken from ChEMBL document CHEMBL1201862, “PubChem BioAssay data set” (2004).
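Step 1: Grow cells in 96-well plates. Step 2: Expose to compound for 48 hours at 5 concentrations. Step 3: Interpolate endpoints linearly; if unreached, use highest concentration. GI50 marks 50% less growth.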 Active and inactive are the calls of the source. No stated cut-off is given here; in the data, active = GI50 up to about 1.1 µM and inactive = higher.

Experiments:
Test in all cases: DTP human tumour cell line panel, 48 h
COLO 205 = tested on: COLO 205
UO-31 = tested on: UO-31
SK-MEL-5 = tested on: SK-MEL-5
HCT-116 = tested on: HCT-116
RPMI-8226 = tested on: RPMI-8226
SK-MEL-28 = tested on: SK-MEL-28
EKVX = tested on: EKVX
M19-MEL = tested on: M19-MEL
SF-268 = tested on: SF-268
SF-539 = tested on: SF-539
CCRF-CEM = tested on: CCRF-CEM
SK-MEL-2 = tested on: SK-MEL-2
M14 = tested on: M14
DLD-1 = tested on: DLD-1
MDA-MB-231 = tested on: MDA-MB-231
DU-145 = tested on: DU-145
BT-549 = tested on: BT-549
MCF7 = tested on: MCF7
T47D = tested on: T47D

Measured: GI50

COc1ccc(/C=N/C23CC4CC(CC(C4)C2)C3)cc1
inactive: COLO 205 > 10 µM | UO-31 > 100 µM | SK-MEL-5 > 100 µM | HCT-116 > 100 µM | RPMI-8226 > 100 µM | SK-MEL-28 > 100 µM | EKVX > 100 µM | M19-MEL > 10 µM | SF-268 > 100 µM | SF-539 > 100 µM | CCRF-CEM > 100 µM | SK-MEL-2 > 100 µM | M14 > 100 µM

COc1ccc2c(C3(O)CCNCC3)c[nH]c2c1
inactive: COLO 205 > 100 µM | UO-31 > 100 µM | DLD-1 > 100 µM | SK-MEL-5 > 100 µM | RPMI-8226 > 100 µM | SK-MEL-28 > 100 µM | EKVX > 100 µM | M19-MEL > 100 µM | SF-268 > 100 µM | SF-539 > 100 µM | CCRF-CEM > 100 µM | SK-MEL-2 > 100 µM | M14 > 100 µM

CCOc1ccc(NC(=O)/C(=C\c2ccc(C)cc2)C(C)=O)cc1
inactive: COLO 205 > 100 µM | UO-31 > 100 µM | DLD-1 > 100 µM | SK-MEL-5 > 100 µM | HCT-116 > 100 µM | RPMI-8226 > 100 µM | SK-MEL-28 > 100 µM | EKVX > 100 µM | M19-MEL > 100 µM | SF-268 > 100 µM | SF-539 > 100 µM | CCRF-CEM > 100 µM | SK-MEL-2 > 100 µM | M14 > 100 µM

COC(=O)N(C(=O)OC)C(C(=O)O)C(C)C (centres undefined)
inactive: COLO 205 > 100 µM | UO-31 > 100 µM | DLD-1 > 100 µM | SK-MEL-28 > 100 µM | EKVX > 100 µM | M19-MEL > 100 µM | SF-268 > 100 µM | SF-539 > 100 µM | SK-MEL-2 > 100 µM | M14 > 100 µM

O=C1Nc2ccc(Br)cc2/C1=N/Nc1ccc([N+](=O)[O-])cc1[N+](=O)[O-]
inactive: COLO 205 2.47 µM | UO-31 2.48 µM | DLD-1 4.58 µM | SK-MEL-5 1.83 µM | HCT-116 1.55 µM | RPMI-8226 2.81 µM | SK-MEL-28 3.33 µM | EKVX 11.3 µM | M19-MEL 3.54 µM | SF-268 4.33 µM | CCRF-CEM 3.02 µM | SK-MEL-2 2.13 µM | M14 4.8 µM

Cn1cc(-c2ccc3c4ccccc4n(C)c3c2)c2ccccc21
inactive: COLO 205 > 100 µM | UO-31 > 100 µM | SK-MEL-5 > 100 µM | HCT-116 > 100 µM | RPMI-8226 > 100 µM | SK-MEL-28 > 100 µM | EKVX > 100 µM | M19-MEL > 100 µM | SF-268 > 100 µM | SF-539 > 100 µM | CCRF-CEM > 100 µM | SK-MEL-2 > 100 µM | M14 > 100 µM

CC1CC(=O)C2CC(CO)=CCCC2C1(C)CC/C(=C/CO)CO (centres undefined)
inactive: COLO 205 > 100 µM | UO-31 > 100 µM | DLD-1 > 100 µM | SK-MEL-5 > 100 µM | HCT-116 > 100 µM | RPMI-8226 > 100 µM | SK-MEL-28 > 100 µM | EKVX > 100 µM | M19-MEL > 100 µM | CCRF-CEM > 100 µM | M14 > 100 µM

NC(CCc1ncc(C(=O)O)s1)C(=O)O (centres undefined)
inactive: COLO 205 > 100 µM | UO-31 > 100 µM | DLD-1 > 100 µM | SK-MEL-5 > 100 µM | HCT-116 > 100 µM | RPMI-8226 > 100 µM | SK-MEL-28 > 100 µM | EKVX > 100 µM | M19-MEL > 100 µM | SF-539 > 100 µM | CCRF-CEM > 100 µM | M14 > 100 µM

O=C(N/C(=C\c1ccccc1)C1Nc2ccccc2C(=O)O1)c1ccccc1 (centres undefined)
inactive: MDA-MB-231 41.3 µM | COLO 205 30.4 µM | UO-31 19.6 µM | DU-145 54.1 µM | SK-MEL-5 19.6 µM | HCT-116 18.3 µM | BT-549 21.5 µM | RPMI-8226 23.3 µM | SK-MEL-28 23.7 µM | EKVX > 100 µM | SF-268 44 µM | SF-539 20.2 µM | CCRF-CEM 19.1 µM | MCF7 45.8 µM | SK-MEL-2 22.5 µM | M14 20.2 µM | T47D > 100 µM

NS(=O)(=O)c1cc(C(=O)O)c(Cl)c([N+](=O)[O-])c1Cl
inactive: MDA-MB-231 > 100 µM | COLO 205 > 100 µM | UO-31 > 100 µM | DU-145 > 100 µM | SK-MEL-5 > 100 µM | HCT-116 > 100 µM | BT-549 > 100 µM | RPMI-8226 > 100 µM | SK-MEL-28 > 100 µM | EKVX > 100 µM | SF-268 > 100 µM | SF-539 > 100 µM | CCRF-CEM > 100 µM | MCF7 > 100 µM | SK-MEL-2 > 100 µM | M14 > 100 µM | T47D > 100 µM

CCOC1=NC(C(F)(F)F)(C(F)(F)F)N=C(/N=C(/N)N(C)C(C(C)C)P(=O)(OC(C)C)OC(C)C)O1 (centres undefined)
inactive: MDA-MB-231 > 100 µM | COLO 205 > 100 µM | UO-31 > 100 µM | DU-145 > 100 µM | SK-MEL-5 59.8 µM | HCT-116 82.2 µM | BT-549 40.6 µM | RPMI-8226 45.9 µM | SK-MEL-28 > 100 µM | EKVX 52 µM | SF-268 48.4 µM | SF-539 > 100 µM | CCRF-CEM 23.8 µM | MCF7 > 100 µM | SK-MEL-2 91.4 µM | M14 > 100 µM | T47D 52.7 µM

C=C(C)C(O)C(O)C[C@@H](C)C1CC[C@]23C[C@]12CCC1[C@@]2(C)CCC(OC(C)=O)C(C)(C)C2CC(OC2OC(CO)C(O)C(O)C2O)[C@]13C (some centres undefined)
inactive: MDA-MB-231 15 µM | COLO 205 17.6 µM | UO-31 > 100 µM | DU-145 21.2 µM | SK-MEL-5 18.9 µM | HCT-116 15.9 µM | BT-549 14.5 µM | RPMI-8226 21.5 µM | SK-MEL-28 22.5 µM | EKVX 42.2 µM | SF-268 18.3 µM | SF-539 14.6 µM | CCRF-CEM 14.2 µM | MCF7 17 µM | SK-MEL-2 16.6 µM | M14 15.2 µM | T47D 17.4 µM

CCCCN(CCCC)C(=O)C(=O)CC(=O)/C=C/c1ccccc1
inactive: COLO 205 > 100 µM | UO-31 > 100 µM | DLD-1 > 100 µM | SK-MEL-5 > 100 µM | HCT-116 > 100 µM | RPMI-8226 > 100 µM | SK-MEL-28 > 100 µM | EKVX > 100 µM | M19-MEL > 100 µM | SF-268 > 100 µM | SF-539 > 100 µM | CCRF-CEM > 100 µM | SK-MEL-2 > 100 µM | M14 > 100 µM

[N-]=[N+]=NC(c1cn(C2CC(O)C(CO)O2)c(=O)[nH]c1=O)C(Br)I (centres undefined)
inactive: COLO 205 > 100 µM | UO-31 > 100 µM | DLD-1 > 100 µM | SK-MEL-5 > 100 µM | HCT-116 > 100 µM | RPMI-8226 > 100 µM | SK-MEL-28 > 100 µM | EKVX > 100 µM | M19-MEL > 100 µM | SF-539 > 100 µM | CCRF-CEM > 100 µM | SK-MEL-2 > 100 µM | M14 > 100 µM
